A word on the Ki: it is the dissociation constant of the complex between target and ligand, obtained from inhibition or displacement.

Experiment [1] relates to H929 human cancer cell lines. Nature of the experiment: Cellular viability / proliferation (Cell TiterGlo, 72 h). The format is cell-based. Put shortly:
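1,000 cells/well, 10% FBS medium; compound added at 24 h, 2-fold dilutions from 50 μM top, DMSO <1% final. 72 h exposure, CellTiterGlo 30 min RT dark, luminescence read. IC50 by 4-parameter fit.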
In general terms: In ATP-based viability assays light output follows the ATP content of the culture.

In a further experiment the target is Mcl-1 (Homo sapiens (Human), UniProt Q07820). Nature of the experiment: TR-FRET binding assay, FITC-Bak peptide and MBP-tagged Mcl-1. Particulars: read-out: Ki for Inhibition of Mcl-1 by TR-FRET assay. As to the method:
Compounds are diluted in DMSO in a 16-point, semilog serial dilution scheme. […] The plate was mixed and incubated for 3 hours at room temperature. […] TR-FRET signal is plotted and IC50 and Ki values are calculated in the same manner as the fluorescence polarization anisotropy based competition assays.

Where [2] appears, read: Homo sapiens, NCI-H929, 72 h, read-out: GI50 on cellular proliferation of H929 human cancer cell lines, H929 cells, 72 h, Cell TiterGlo, 10% FBS.

The structures appear in SMILES notation. Where two headings read alike, the source gives them in different places.

Chain of Mcl-1 (Q07820 172-327): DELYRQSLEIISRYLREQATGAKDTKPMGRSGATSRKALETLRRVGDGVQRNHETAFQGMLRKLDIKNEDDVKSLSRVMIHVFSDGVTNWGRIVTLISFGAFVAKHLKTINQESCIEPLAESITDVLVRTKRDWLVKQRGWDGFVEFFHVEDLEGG

For `Cc1cccc(Cn2cc(C(=O)O)c3cccc(N4C[C@@H](C)n5c(c(CCCOc6cc(C)c(Cl)c(C)c6)c6ccc(Cl)c(-c7c(C)nn(C)c7C)c65)C4=O)c32)n1` (single isomer, unassigned) [Example 494], the GI50 in experiment [1] (read-out: GI50 on cellular proliferation of H929 human cancer cell lines, H929 cells, 72 h, Cell TiterGlo, 10% FBS) is 0.45 µM. Further, the inhibition constant (Ki) on Mcl-1 worked out at 0.0003 µM.
Consider `Cc1cc(N2C[C@@H](C)n3c(c(CCCOc4cc(C)c(Cl)c(C)c4)c4ccc(Cl)c(-c5c(C)n[nH]c5C)c43)C2=O)c2c(c1)cc(C(=O)O)n2Cc1ccccn1` [Example 719, (R)-7-(7-chloro-10-(3-(4-chloro-3,5-dimethylphenoxy)propyl)-6-(3,5-dimethyl-1H-pyrazol-4-yl)-4-methyl-1-oxo-3,4-dihydropyrazino[1,2-a]indol-2(1H)-yl)-5-methyl-1-(pyridin-2-ylmethyl)-1H-indole-2-carboxylic acid], for which the GI50 in experiment [1] (setting [2]) came out at 0.64 µM. The Ki on Mcl-1 is under 0.0002 µM.
The matching figures for `Cc1cc(OCCCc2c3n(c4c(-c5c(C)nn(C)c5C)c(Cl)ccc24)[C@H](C)CN(c2cn(Cc4cccnc4)c4ccc(C(=O)O)cc24)C3=O)cc(C)c1Cl` [Example 563, (R)-3-(7-chloro-10-(3-(4-chloro-3,5-dimethylphenoxy)propyl)-4-methyl-1-oxo-6-(1,3,5-trimethyl-1H-pyrazol-4-yl)-3,4-dihydropyrazino[1,2-a]indol-2(1H)-yl)-1-(pyridin-3-ylmethyl)-1H-indole-5-carboxylic acid]: 1.5 µM and under 0.0002 µM.
On the same counts, the results for `Cc1cc(OCCCc2c3n(c4c(-c5c(C)nn(C)c5C)c(Cl)ccc24)[C@H](C)CN(c2cc(NCCN(C)C)cc4c(C(=O)O)cn(C)c24)C3=O)cc(C)c1Cl` [Example 498, (R)-7-(7-chloro-10-(3-(4-chloro-3,5-dimethylphenoxy)propyl)-4-methyl-1-oxo-6-(1,3,5-trimethyl-1H-pyrazol-4-yl)-3,4-dihydropyrazino[1,2-a]indol-2(1H)-yl)-5-((2-(dimethylamino)ethyl)amino)-1-methyl-1H-indole-3-carboxylic acid] are 1.9 µM and 0.00058 µM.
The matching figures for `Cc1cc(OCCCc2c3n(c4c(-c5c(C)nc(CN6CCN(C)CC6)nc5C)c(Cl)ccc24)[C@H](C)CN(c2cn(CCN(C)C)c4ccc(C(=O)O)cc24)C3=O)cc(C)c1Cl` [Example 580, (R)-3-(7-chloro-10-(3-(4-chloro-3,5-dimethylphenoxy)propyl)-6-(4,6-dimethyl-2-((4-methylpiperazin-1-yl)methyl)pyrimidin-5-yl)-4-methyl-1-oxo-3,4-dihydropyrazino[1,2-a]indol-2(1H)-yl)-1-(2-(dimethylamino)ethyl)-1H-indole-5-carboxylic acid]: 0.96 µM and under 0.0002 µM.
Take `CCc1ccnc(Cn2c(C(=O)O)cc3cc(C)cc(N4C[C@@H](C)n5c(c(CCCOc6cc(C)c(Cl)c(C)c6)c6ccc(Cl)c(-c7c(C)nn(C)c7C)c65)C4=O)c32)c1` [Example 627, (R)-7-(7-chloro-10-(3-(4-chloro-3,5-dimethylphenoxy)propyl)-4-methyl-1-oxo-6-(1,3,5-trimethyl-1H-pyrazol-4-yl)-3,4-dihydropyrazino[1,2-a]indol-2(1H)-yl)-1-((4-ethylpyridin-2-yl)methyl)-5-methyl-1H-indole-2-carboxylic acid]: the GI50 in experiment [1] (setting [2]) is under 0.2 µM. Moreover, the Ki on Mcl-1 is under 0.0002 µM.
On the same counts, the results for `Cc1cc(N2C[C@@H](C)n3c(c(CCCOc4cc(C)c(Cl)c(C)c4)c4ccc(Cl)c(-c5c(C)nn(C)c5C)c43)C2=O)c2c(c1)cc(C(=O)O)n2Cc1cccc(N2CCOCC2)n1` [Example 499, (R)-7-(7-chloro-10-(3-(4-chloro-3,5-dimethylphenoxy)propyl)-4-methyl-1-oxo-6-(1,3,5-trimethyl-1H-pyrazol-4-yl)-3,4-dihydropyrazino[1,2-a]indol-2(1H)-yl)-5-methyl-1-((6-morpholinopyridin-2-yl)methyl)-1H-indole-2-carboxylic acid] are 0.74 µM and 0.00021 µM.
The matching figures for `Cc1cc(OCCCc2c3n(c4c(-c5c(C)ncnc5C)c(Cl)ccc24)[C@H](C)CN(c2cc(OCCN4CCOCC4)cc4cc(C(=O)O)n(C)c24)C3=O)cc(C)c1Cl` [Example 558, (R)-7-(7-chloro-10-(3-(4-chloro-3,5-dimethylphenoxy)propyl)-6-(4,6-dimethylpyrimidin-5-yl)-4-methyl-1-oxo-3,4-dihydropyrazino[1,2-a]indol-2(1H)-yl)-1-methyl-5-(2-morpholinoethoxy)-1H-indole-2-carboxylic acid]: 0.31 µM and under 0.0002 µM.
The matching figures for `Cc1cc(OCCCc2c3n(c4c(-c5c(C)nn(C)c5C)c(Cl)ccc24)[C@H](C)CN(c2cn(C)c4ccc(C(=O)O)nc24)C3=O)cc(C)c1Cl` [Example 489, (R)-3-(7-Chloro-10-(3-(4-chloro-3,5-dimethylphenoxy)propyl)-4-methyl-1-oxo-6-(1,3,5-trimethyl-1H-pyrazol-4-yl)-3,4-dihydropyrazino[1,2-a]indol-2(1H)-yl)-1-methyl-1H-pyrrolo[3,2-b]pyridine-5-carboxylic acid]: under 0.2 µM and under 0.0002 µM.
`Cc1cc(OCCCc2c3n(c4c(-c5c(C)ncnc5C)c(Cl)ccc24)[C@H](C)CN(c2cn(C)c4ncc(C(=O)O)nc24)C3=O)cc(C)c1Cl` [Example 644, (R)-7-(7-chloro-10(3-(4-chloro-3,5-dimethylphenoxy)propyl)-6-(4,6-dimethylpyrimidin-5-yl)-4-methyl-1-oxo-3,4-dihydropyrazino[1,2-a]indol-2(1H)-yl)-5-methyl-5H-pyrrolo[2,3-b]pyrazine-2-carboxylic acid]: in experiment [1] (setting [2]), the GI50 worked out at 1.9 µM. The Ki at Mcl-1 was under 0.0002 µM.
On the same counts, the results for `Cc1cc(OCCCc2c3n(c4c(-c5c(C)nn(C)c5C)c(Cl)ccc24)[C@H](C)CN(c2cn(C)c4ccc(-c5nc6c(C)cccn6n5)cc24)C3=O)cc(C)c1Cl` [Example 698, (R)-7-Chloro-10-(3-(4-chloro-3,5-dimethylphenoxy)propyl)-4-methyl-2-(1-methyl-5-(8-methyl-[1,2,4]triazolo[1,5-a]pyridin-2-yl)-1H-indol-3-yl)-6-(1,3,5-trimethyl-1H-pyrazol-4-yl)-3,4-dihydropyrazino[1,2-a]indol-1(2H)-one] are 0.62 µM and 0.0018 µM.
The matching figures for `Cc1cc(OCCCc2c3n(c4c(-c5c(C)nn(C)c5C)c(Cl)ccc24)[C@H](C)CN(c2cc(NC(=O)CN4CCCCC4)cc4c(C(=O)O)cn(C)c24)C3=O)cc(C)c1Cl` [Example 533, (R)-7-(7-Chloro-10-(3-(4-chloro-3,5-dimethylphenoxy)propyl)-4-methyl-1-oxo-6-(1,3,5-trimethyl-1H-pyrazol-4-yl)-3,4-dihydropyrazino[1,2-a]indol-2(1H)-yl)-1-methyl-5-(2-(piperidin-1-yl)acetamido)-1H-indole-3-carboxylic acid]: 1.3 µM and 0.00069 µM.
In the case of `Cc1cc(OCCCc2c3n(c4c(-c5c(C)nn(C)c5C)c(Cl)ccc24)[C@H](C)CN(c2cc(C(=O)N4CCN(C)C(=O)C4)cc4cc(C(=O)O)n(C)c24)C3=O)cc(C)c1Cl` [Example 630, (R)-7-(7-chloro-10-(3-(4-chloro-3,5-dimethylphenoxy)propyl)-4-methyl-1-oxo-6-(1,3,5-trimethyl-1H-pyrazol-4-yl)-3,4-dihydropyrazino[1,2-a]indol-2(1H)-yl)-1-methyl-5-(4-methyl-3-oxopiperazine-1-carbonyl)-1H-indole-2-carboxylic acid], the GI50 in experiment [1] (setting [2]) stood at 9 µM. The inhibition constant (Ki) at Mcl-1 was under 0.0002 µM.
The matching figures for `C=C(C)c1ccnc(Cn2c(C(=O)O)cc3cc(C)cc(N4C[C@@H](C)n5c(c(CCCOc6cc(C)c(Cl)c(C)c6)c6ccc(Cl)c(-c7c(C)nn(C)c7C)c65)C4=O)c32)c1` [Example 641, (R)-7-(7-chloro-10-(3-(4-chloro-3,5-dimethylphenoxy)propyl)-4-methyl-1-oxo-6-(1,3,5-trimethyl-1H-pyrazol-4-yl)-3,4-dihydropyrazino[1,2-a]indol-2(1H)-yl)-5-methyl-1-((4-(prop-1-en-2-yl)pyridin-2-yl)methyl)-1H-indole-2-carboxylic acid]: 0.35 µM and under 0.0002 µM.
The matching figures for `CC(=O)N1CCN(c2cccc(Cn3c(C(=O)O)cc4cc(C)cc(N5C[C@@H](C)n6c(c(CCCOc7cc(C)c(Cl)c(C)c7)c7ccc(Cl)c(-c8c(C)nn(C)c8C)c76)C5=O)c43)n2)CC1` [Example 528, (R)-1-((6-(4-acetylpiperazin-1-yl)pyridin-2-yl)methyl)-7-(7-chloro-10-(3-(4-chloro-3,5-dimethylphenoxy)propyl)-4-methyl-1-oxo-6-(1,3,5-trimethyl-1H-pyrazol-4-yl)-3,4-dihydropyrazino[1,2-a]indol-2(1H)-yl)-5-methyl-1H-indole-2-carboxylic acid]: 0.87 µM and under 0.0002 µM.
The matching figures for `Cc1cc(OCCCc2c3n(c4c(-c5c(C)nn(C)c5C)c(Cl)ccc24)[C@H](C)CN(c2cc(OCc4cccnc4)cc4cc(C(=O)O)n(C)c24)C3=O)cc(C)c1Cl` [Example 487, (R)-7-(7-Chloro-10-(3-(4-chloro-3,5-dimethylphenoxy)propyl)-4-methyl-1-oxo-6-(1,3,5-trimethyl-1H-pyrazol-4-yl)-3,4-dihydropyrazino[1,2-a]indol-2(1H)-yl)-1-methyl-5-(pyridin-3-ylmethoxy)-1H-indole-2-carboxylic acid]: 0.28 µM and 0.00023 µM.
